# In patent US20150216925A1, “AGENT FOR PREVENTING OR AM[…] ENDOTHELIAL MALFUNCTION” (KYOWA HAKKO BIO CO., LTD., priority 2012, published 2015):
# Tested on: normal human umbilical vein endothelial cell (HUVEC)
# Test: NO production (nitrite in culture supernatant) in HUVEC, HPLC
# Assay type: cell-based
# Conditions: 24-hour culture, FIG. 1
# Method: A normal human umbilical vein endothelial cell (HUVEC) line available from Clonetics (SanDiego, Calif., USA) was used with EGM-2 Bullet Kit medium containing 2% FBS (Takara Bio). The cells were cultured in at 37° C., in 5% CO2 incubator, and used for experiment after 4 to 6 passages. Citrulline and reduced glutathione were obtained from Kyowa Hakko Bio.
# A cell suspension (0.45 mL) with the adjusted initial cell concentration of 5×10^5 cells/mL was inoculated in a 24-well plate (IWAKI). After 40-hour culture, the media were replaced with those containing citrulline (final concentration 0.3 mM: citrulline group), reduced glutathione (final concentration 1 mM: high-dose glutathione group), and a citrulline and reduced glutathione mixture (citrulline final concentration 0.3 mM; glutathione final concentration 0.3 mM: citrulline+low-dose glutathione group). Media with the sole addition of solvent (PBS) were used as a control group. After 24-hour culture, the cell culture (100 μL) was centrifuged at 12,000 rpm for 10 minutes, and the concentration of nitrite (NO2), which is the stable NO metabolite, in culture supernatant was quantified by HPLC (ENO-20, EICOM).
smiles,measurement,setting,value
"N[C@@H](CCC(=O)N[C@@H](CS)C(=O)NCC(=O)O)C(=O)O [glutathione, γ-L-Glu-L-Cys-Gly]",effect on NO production (nitrite NO2 concentration in medium),reduced glutathione final concentration 1 mM (high-dose),no effect
"NC(=O)NCCC[C@H](N)C(=O)O [citrulline, L-citrulline]",effect on NO production (nitrite NO2 concentration in medium),citrulline final concentration 0.3 mM,no effect
